Measured values published in ChEMBL document CHEMBL3044945, “Synthesis of 1,3,5-trisubstituted pyrazoline nucleus containing compounds and screening for antimicrobial activity” (2012).
Values after ≈ are worked out from the molar mass of the structure shown.

Experiments:
Format in all cases: functional
Escherichia coli = experiment: Antibacterial activity against Escherichia coli MTCC 1573 after 24 to 48 hr by tube dilution method
Micrococcus luteus [1] = experiment: Antibacterial activity against Micrococcus luteus MTCC 1538 at 100 ug/ml after 48 hr by cup-plate method; details: MTCC 1538, 48 h, read-out: DIZ
Staphylococcus aureus = experiment: Antibacterial activity against Staphylococcus aureus MTCC 1430 at 100 ug/ml after 48 hr by cup-plate method; details: MTCC 1430, 48 h, read-out: DIZ
Micrococcus luteus [2] = experiment: Antibacterial activity against Micrococcus luteus MTCC 1538 at 1000 ug/ml after 48 hr by cup-plate method; details: MTCC 1538, 48 h, read-out: DIZ
Pseudomonas fluorescens [3] = experiment: Antibacterial activity against Pseudomonas fluorescens MTCC 2421 at 1250 ug/ml after 48 hr by cup-plate method; details: MTCC 2421, 48 h, read-out: DIZ
Micrococcus luteus [4] = experiment: Antibacterial activity against Micrococcus luteus MTCC 1538 at 500 ug/ml after 48 hr by cup-plate method; details: MTCC 1538, 48 h, read-out: DIZ
Pseudomonas fluorescens [5] = experiment: Antibacterial activity against Pseudomonas fluorescens MTCC 2421 at 250 ug/ml after 48 hr by cup-plate method; details: MTCC 2421, 48 h, read-out: DIZ
Bacillus pumilus [6] = experiment: Antibacterial activity against Bacillus pumilus MTCC 1456 at 1000 ug/ml after 48 hr by cup-plate method; details: MTCC 1456, 48 h, read-out: DIZ
Penicillium chrysogenum [7] = experiment: Antifungal activity against Penicillium chrysogenum MTCC 161 at 250 ug/ml after 48 hr by cup-plate method; details: MTCC 161, 48 h, read-out: DIZ
Penicillium chrysogenum [8] = experiment: Antifungal activity against Penicillium chrysogenum MTCC 161 after 24 to 48 hr by tube dilution method
Pseudomonas fluorescens [9] = experiment: Antibacterial activity against Pseudomonas fluorescens MTCC 2421 at 1000 ug/ml after 48 hr by cup-plate method; details: MTCC 2421, 48 h, read-out: DIZ
Penicillium chrysogenum [10] = experiment: Antifungal activity against Penicillium chrysogenum MTCC 161 at 750 ug/ml after 48 hr by cup-plate method; details: MTCC 161, 48 h, read-out: DIZ
Bacillus pumilus [11] = experiment: Antibacterial activity against Bacillus pumilus MTCC 1456 at 750 ug/ml after 48 hr by cup-plate method; details: MTCC 1456, 48 h, read-out: DIZ
Aspergillus niger [12] = experiment: Antifungal activity against Aspergillus niger MTCC 2546 at 100 ug/ml after 48 hr by cup-plate method; details: MTCC 2546, 48 h, read-out: DIZ
Penicillium chrysogenum [13] = experiment: Antifungal activity against Penicillium chrysogenum MTCC 161 at 100 ug/ml after 48 hr by cup-plate method; details: MTCC 161, 48 h, read-out: DIZ
Aspergillus niger [14] = experiment: Antifungal activity against Aspergillus niger MTCC 2546 after 24 to 48 hr by tube dilution method
Pseudomonas fluorescens [15] = experiment: Antibacterial activity against Pseudomonas fluorescens MTCC 2421 at 100 ug/ml after 48 hr by cup-plate method; details: MTCC 2421, 48 h, read-out: DIZ

SMILES | MIC (Escherichia coli) [µg/mL] | zone of inhibition at 100 µg/mL (Micrococcus luteus [1]) [mm] | zone of inhibition at 100 µg/mL (Staphylococcus aureus) [mm] | zone of inhibition at 1000 µg/mL (Micrococcus luteus [2]) [mm] | zone of inhibition at 1250 µg/mL (Pseudomonas fluorescens [3]) [mm] | zone of inhibition at 500 µg/mL (Micrococcus luteus [4]) [mm] | zone of inhibition at 250 µg/mL (Pseudomonas fluorescens [5]) [mm] | zone of inhibition at 1000 µg/mL (Bacillus pumilus [6]) [mm] | zone of inhibition at 250 µg/mL (Penicillium chrysogenum [7]) [mm] | MIC (Penicillium chrysogenum [8]) [µg/mL] | zone of inhibition at 1000 µg/mL (Pseudomonas fluorescens [9]) [mm] | zone of inhibition at 750 µg/mL (Penicillium chrysogenum [10]) [mm] | zone of inhibition at 750 µg/mL (Bacillus pumilus [11]) [mm] | zone of inhibition at 100 µg/mL (Aspergillus niger [12]) [mm] | zone of inhibition at 100 µg/mL (Penicillium chrysogenum [13]) [mm] | MIC (Aspergillus niger [14]) [µg/mL] | zone of inhibition at 100 µg/mL (Pseudomonas fluorescens [15]) [mm]
O=[N+]([O-])c1ccc(C2CC(c3cccc4ccccc34)=NN2)cc1 (stereo unspecified) | 200 (≈ 630 µM) | 9 | 9 | 13 | 17 | 11 | 9 | 17 | 9 | 50 (≈ 158 µM) | 15 | 14 | 14 | 8 | 8 | 50 (≈ 158 µM) | 
O=[N+]([O-])c1ccc(C2CC(c3cccc4ccccc34)=NN2c2ccccc2)cc1 (stereo unspecified) | 50 (≈ 127 µM) |  |  | 13 | 19 | 9 | 9 | 16 | 12 | 30 (≈ 76.2 µM) | 16 | 15 | 14 | 10 | 10 | 30 (≈ 76.2 µM) | 8
O=[N+]([O-])c1ccc(C2CC(c3cccc4ccccc34)=NN2c2ccc([N+](=O)[O-])cc2)cc1 (stereo unspecified) | 50 (≈ 114 µM) |  |  | 13 | 21 | 11 | 10 | 18 | 10 | 50 (≈ 114 µM) | 18 | 14 | 15 | 12 | 9 | 30 (≈ 68.4 µM) | 9
NC(=S)N1N=C(c2cccc3ccccc23)CC1c1ccc([N+](=O)[O-])cc1 (stereo unspecified) | 50 (≈ 133 µM) |  |  | 16 | 24 | 11 | 10 | 19 | 11 | 30 (≈ 79.7 µM) | 23 | 19 | 18 | 10 | 10 | 30 (≈ 79.7 µM) | 8
O=[N+]([O-])c1ccc(C2CC(c3cccc4ccccc34)=NN2c2ccccc2[N+](=O)[O-])cc1 (stereo unspecified) | 30 (≈ 68.4 µM) |  |  | 15 | 24 | 9 | 11 | 23 | 14 | 30 (≈ 68.4 µM) | 21 | 20 | 18 | 10 | 13 | 30 (≈ 68.4 µM) | 10
